Assay results published in patent publication US12478624B2, “Heterocyclic derivatives, pharmaceutical compositions and their use in the treatment or amelioration of cancer” (Tolremo Therapeutics AG, priority 2019, dated 2025).

The molecules below were run on A375 cells (assay: Assay 1: A375 cells treated with S1152, S1008 and compound, immunofluorescence (sc-365823) signal). Details: 1 μM S1152 + 0.5 μM S1008, one day.
Format: cell-based
Procedure: One thousand four hundred A375 cells were seeded in each well of a 384 well microplate. One day later they were treated with 1 μM S1152 (Selleckchem) in dimethyl sulfoxide, 0.5 μM S1008 (Selleckchem) and dose ranges of invention compounds for one day in Dulbecco's Modified Eagle's Medium supplemented with 10% fetal calf serum and 2 mM (2S)-2-amino-4-carbamoylbutanoic acid. Wells were incubated with 4% polyoxymethylene (Sigma Aldrich 158127) at ambient temperature. […] After one minute phosphate-buffered saline was replaced with 0.2% polyethylene glycol octylphenyl ether in phosphate-buffered saline. […] 1% aminoethanoic acid in phosphate-buffered saline was added for ten minutes at ambient temperature. […] After one hour at ambient temperature in the dark, signal in wells was measured with a Acumen Cellista. 3,8-Diamino-5-[3-(diethylmethylammonio)propyl]-6-phenylphenanthridinium diiodide-positive objects were defined in FL3 (565-600 nm) with a perimeter between 50-800 μm and a total intensity of 10000-1000000 FLU. Signal in FL2 (500-530 nm) was measured in defined objects. A normalized ratio of total In FL2 over total In FL3 staining was log transformed. A non-linear regression (variable slope, 4 parameters) was used to calculate EC50 values using GraphPad Prism (Version 7.0d).
In an alternative procedure, assay 1 has been affected by changing the counteratain. […] Cells were incubated with 0.5 μg/ml 2-(4-Amidinophenyl)-6-indolecarbamidine dihydrochloride, 4′,6-Diamidino-2-phenylindole dihydrochloride (Sigma D9542) in phosphate-buffered saline for at least 30 minutes at ambient temperature in the dark. A Celigo Imager (Nexcelom) was used to acquire images in the blue and green channel. The blue channel was used as a mask to define the area for the green signal. The average integrated intensity of the green signal was normalized and a non-linear regression (variable slope, 4 parameter) was used to calculate the EC50 values using GraphPad Prism (Version 8.4)
`CC(=O)N1C[C@H](c2nc(Nc3ccc4c(c3)B(O)OC4)cc(-c3cccnc3)n2)CC[C@@H]1C` [Compound 00034, 1-((2S,5R)-5-(4-((1-hydroxy-1,3-dihydrobenzo[c][1,2]oxaborol-6-yl)amino)-6-(pyridin-3-yl)pyrimidin-2-yl)-2-methylpiperidin-1-yl)ethan-1-one] was tested, and the EC50 was 0.2 to 1 µM. `CC(=O)N1C[C@H](c2nc(Nc3ccnc(F)c3)cc(-c3cncc(N4CCCC4=O)c3)n2)CC[C@@H]1C` [Compound 00106, 1-(5-(2-((3R,6S)-1-acetyl-6-methylpiperidin-3-yl)-6-((2-fluoropyridin-4-yl)amino)pyrimidin-4-yl)pyridin-3-yl)pyrrolidin-2-one] showed an EC50 of less than 0.2 µM. `CC(=O)N1C[C@H](c2nc(Nc3cccc(N4CCCC4=O)c3)cc(-c3cccnc3)n2)CC[C@@H]1C` [Compound 00048, 1-(3-((2-((3R,6S)-1-acetyl-6-methylpiperidin-3-yl)-6-(pyridin-3-yl)pyrimidin-4-yl)amino)phenyl)pyrrolidin-2-one] showed an EC50 of less than 0.2 µM. Molecule `CC(=O)N1C[C@H](c2nc(Nc3cncc(C)c3)cc(-c3cncc(C4COC4)c3)n2)CC[C@@H]1C` (racemic) [Compound 00100, (+/−)-c/s-1-(2-methyl-5-(4-((5-methylpyridin-3-yl)amino)-6-(5-(oxetan-3-yl)pyridin-3-yl)pyrimidin-2-yl)piperidin-1-yl)ethan-1-one] has an EC50 of 0.2 to 1 µM. For `COc1cncc(-c2cc(Nc3cccc(Cl)c3)nc([C@@H]3CC[C@H](C)N(C(C)=O)C3)n2)c1` [Compound 00074, 1-((2S,5R)-5-(4-((3-chlorophenyl)amino)-6-(5-methoxypyridin-3-yl)pyrimidin-2-yl)-2-methylpiperidin-1-yl)ethan-1-one], the EC50 was less than 0.2 µM. Molecule `COc1cc(F)cc(Nc2cc(-c3cccnc3)nc([C@@H]3CC[C@H](C)N(C(C)=O)C3)n2)c1` [Compound 00031, 1-((2S,5R)-5-(4-((3-fluoro-5-methoxyphenyl)amino)-6-(pyridin-3-yl)pyrimidin-2-yl)-2-methylpiperidin-1-yl)ethan-1-one] has an EC50 of less than 0.2 µM. `CC(=O)N1C[C@@H](c2nc(Nc3cncc(C)c3)cc(-c3cnccn3)n2)CC[C@H]1C` [Compound 00002, 1-((2R,5S)-2-methyl-5-(4-((5-methylpyridin-3-yl)amino)-6-(pyrazin-2-yl)pyrimidin-2-yl)piperidin-1-yl)ethan-1-one] gave an EC50 greater than 10 µM. With `CC(=O)N1C[C@@H](c2nc(Nc3ccncc3)cc(-c3cccnc3)n2)CC[C@H]1C` [Compound 00007] the EC50 was greater than 10 µM. For `CC(=O)N1C[C@H](c2nc(Nc3cccc(F)c3)cc(-c3cccnc3)n2)CC[C@@H]1C(F)(F)F` (racemic) [Compound 00023, (+/−)-c/s-1-(5-(4-((3-fluorophenyl)amino)-6-(pyridin-3-yl)pyrimidin-2-yl)-2-(trifluoromethyl)piperidin-1-yl)ethan-1-one], the EC50 was 0.2 to 1 µM.

Same assay, conditions: Homo sapiens, A-375, 24 h, 1 μM S1152 + 0.5 μM S1008, one day
`CC(=O)N1C[C@H](c2nc(Nc3cccc(F)c3)cc(-c3cccnc3)n2)CC[C@H]1C(F)(F)F` (racemic) [Compound 00024, (+/−)-trans-1-(5-(4-((3-fluorophenyl)amino)-6-(pyridin-3-yl)pyrimidin-2-yl)-2-(trifluoromethyl)piperidin-1-yl)ethan-1-one] was tested, and the EC50 was greater than 10 µM. Molecule `CC[C@H]1CC[C@@H](c2nc(Nc3cccc(C)c3)cc(-c3cccnc3)n2)CN1C(C)=O` (racemic) [Compound 00018, (+/−)-cis-1-(2-ethyl-5-(4-(pyridin-3-yl)-6-(m-tolylamino)pyrimidin-2-yl)piperidin-1-yl)ethan-1-one] has an EC50 of 1 to 10 µM. `CC(=O)N1C[C@H](c2nc(Nc3cccc(C)c3)cc(-c3cccnc3)n2)CC[C@@H]1C(F)F` (racemic) [Compound 00027, (+/−)-cis-1-(2-(difluoromethyl)-5-(4-(pyridin-3-yl)-6-(m-tolylamino)pyrimidin-2-yl)piperidin-1-yl)ethan-1-one] gave an EC50 of 1 to 10 µM. `CC(=O)N1C[C@H](c2nc(Nc3cncc(C)c3)cc(-c3cncnc3)n2)CC[C@@H]1C` (racemic) [Compound 00097, (+/−)-c/s-1-(2-methyl-5-(6-((5-methylpyridin-3-yl)amino)-[4,5′-bipyrimidin]-2-yl)piperidin-1-yl)ethan-1-one] was tested, and the EC50 was 1 to 10 µM.
